{
  "source": "patent US10738026B2",
  "about": "“Isoquinoline derivatives and use thereof” (Purdue Pharma L.P., priority 2014, dated 2020)",
  "key": {"[1]": {"target": "human Nav1.7 (Homo sapiens (Human), UniProt Q15858)", "sequence (Q15858 with tags, fused parts or gaps limits assumed)": "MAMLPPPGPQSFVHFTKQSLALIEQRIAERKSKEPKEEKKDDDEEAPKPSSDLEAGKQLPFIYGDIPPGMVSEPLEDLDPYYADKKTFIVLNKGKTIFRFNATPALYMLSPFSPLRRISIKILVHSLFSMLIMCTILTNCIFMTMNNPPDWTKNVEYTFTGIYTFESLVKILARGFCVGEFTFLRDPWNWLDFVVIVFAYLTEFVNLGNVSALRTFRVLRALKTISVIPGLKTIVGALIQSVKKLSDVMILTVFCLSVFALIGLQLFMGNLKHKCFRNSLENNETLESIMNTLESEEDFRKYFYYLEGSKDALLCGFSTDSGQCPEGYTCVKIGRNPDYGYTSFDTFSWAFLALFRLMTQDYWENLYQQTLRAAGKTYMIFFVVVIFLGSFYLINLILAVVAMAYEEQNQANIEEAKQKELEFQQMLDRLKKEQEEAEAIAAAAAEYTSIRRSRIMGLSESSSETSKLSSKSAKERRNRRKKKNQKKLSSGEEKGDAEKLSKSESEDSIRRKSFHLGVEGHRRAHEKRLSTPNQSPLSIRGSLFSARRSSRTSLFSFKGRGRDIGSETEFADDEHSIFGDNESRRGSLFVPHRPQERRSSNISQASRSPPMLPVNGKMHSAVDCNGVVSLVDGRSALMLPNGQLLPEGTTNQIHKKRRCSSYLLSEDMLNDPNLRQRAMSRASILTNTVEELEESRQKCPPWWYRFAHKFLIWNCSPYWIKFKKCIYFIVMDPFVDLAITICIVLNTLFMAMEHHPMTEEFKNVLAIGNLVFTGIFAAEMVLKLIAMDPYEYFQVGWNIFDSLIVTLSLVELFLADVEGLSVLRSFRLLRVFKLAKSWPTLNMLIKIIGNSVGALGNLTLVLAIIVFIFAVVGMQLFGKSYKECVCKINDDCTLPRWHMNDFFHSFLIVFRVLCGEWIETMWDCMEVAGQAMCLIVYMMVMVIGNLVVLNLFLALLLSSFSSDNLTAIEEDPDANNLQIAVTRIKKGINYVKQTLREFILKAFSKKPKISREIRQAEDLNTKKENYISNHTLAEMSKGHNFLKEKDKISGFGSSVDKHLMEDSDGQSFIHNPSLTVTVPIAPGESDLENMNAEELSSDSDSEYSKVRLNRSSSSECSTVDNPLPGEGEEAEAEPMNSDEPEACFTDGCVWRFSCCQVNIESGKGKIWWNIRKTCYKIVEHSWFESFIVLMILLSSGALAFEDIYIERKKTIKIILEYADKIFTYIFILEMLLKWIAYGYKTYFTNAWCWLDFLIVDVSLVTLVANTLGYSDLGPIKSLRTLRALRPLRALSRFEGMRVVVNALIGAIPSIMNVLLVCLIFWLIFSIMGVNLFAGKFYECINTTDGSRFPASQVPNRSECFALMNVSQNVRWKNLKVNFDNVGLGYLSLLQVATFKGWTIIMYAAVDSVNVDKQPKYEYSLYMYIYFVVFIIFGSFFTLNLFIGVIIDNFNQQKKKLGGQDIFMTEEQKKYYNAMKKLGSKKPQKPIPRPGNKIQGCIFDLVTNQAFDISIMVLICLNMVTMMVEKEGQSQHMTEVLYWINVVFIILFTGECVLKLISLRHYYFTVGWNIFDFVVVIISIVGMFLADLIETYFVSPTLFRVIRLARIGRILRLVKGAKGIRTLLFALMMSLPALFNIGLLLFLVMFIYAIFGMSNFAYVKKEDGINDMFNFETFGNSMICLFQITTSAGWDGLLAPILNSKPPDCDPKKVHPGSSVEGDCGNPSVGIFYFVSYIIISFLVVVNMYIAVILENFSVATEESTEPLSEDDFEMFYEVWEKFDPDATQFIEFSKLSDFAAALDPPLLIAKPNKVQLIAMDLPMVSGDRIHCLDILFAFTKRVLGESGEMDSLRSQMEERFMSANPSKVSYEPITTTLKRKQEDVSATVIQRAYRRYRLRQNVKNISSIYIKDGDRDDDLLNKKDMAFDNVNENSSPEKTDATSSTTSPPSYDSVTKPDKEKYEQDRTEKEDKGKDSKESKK", "experiment": "FLIPR or FLIPR TETRA sodium dye assay with KCl and test article pre-incubation (sodium mobilization)", "assay_type": "cell-based", "settings": "recombinant human Nav1.7 in HEK293; veratridine and scorpion venom as agonists"}, "[2]": {"target": "hNav1.7 (Homo sapiens (Human), UniProt Q15858)", "sequence (Q15858 other isoform, or with tags, fused parts or gaps)": "as the sequence (Q15858 with tags, fused parts or gaps limits assumed) above", "experiment": "Electrophysiology (EP) assay, whole-cell patch clamp in hNav1.7 expressing HEK-293 cells", "assay_type": "cell-based", "settings": "hNav1.7 HEK-293 cells; affinity for the inactivated state of the channel; read-out: Nav1.7 Activity (μM) EP assay Ki"}},
  "data": [
    {"smiles": "C[C@H](Nc1cc(C(N)=O)nc(N2CCc3c(cccc3-c3ccc(C(F)(F)F)cc3)C2)n1)C(N)=O", "note": "[Compound 22, (S)-6-((1-amino-1-oxopropan-2-yl)amino)-2-(5-(4-(trifluoromethyl)phenyl)-3,4-dihydroisoquinolin-2(1H)-yl)pyrimidine-4-carboxamide]", "values": [
      {"measurement": "IC50", "setting": "[1]", "value": "0.428 ± 0.069", "unit": "µM"},
      {"measurement": "Ki", "setting": "[2]", "value": "0.317 ± 0.079", "unit": "µM"}
    ]},
    {"smiles": "C[C@H](Nc1cc(C(N)=O)nc(N2CCc3c(cccc3-c3ccc(C(F)(F)F)cn3)C2)n1)C(N)=O", "note": "[Compound 23, (S)-6-((1-amino-1-oxopropan-2-yl)amino)-2-(5-(5-(trifluoromethyl)-pyridin-2-yl)-3,4-dihydroisoquinolin-2(1H)-yl)pyrimidine-4-carboxamide]", "values": [
      {"measurement": "IC50", "setting": "[1]", "value": "> 20", "unit": "µM"}
    ]},
    {"smiles": "C[C@H](Nc1cc(C(N)=O)nc(N2CCc3c(cccc3-c3ccccc3C(F)(F)F)C2)n1)C(N)=O", "note": "[Compound 24, (S)-6-((1-amino-1-oxopropan-2-yl)amino)-2-(5-(2-(trifluoromethyl)-phenyl)-3,4-dihydroisoquinolin-2(1H)-yl)pyrimidine-4-carboxamide]", "values": [
      {"measurement": "IC50", "setting": "[1]", "value": "2.35 ± 0.125", "unit": "µM"}
    ]},
    {"smiles": "NC(=O)c1cccc(N2CCc3c(cccc3-c3ccc(C(F)(F)F)cc3)C2)n1", "note": "[Compound 25, 6-(5-(4-(trifluoromethyl)phenyl)-3,4-dihydroisoquinolin-2(1H)-yl)picolinamide]", "values": [
      {"measurement": "IC50", "setting": "[1]", "value": "0.987 ± 0.072", "unit": "µM"}
    ]},
    {"smiles": "NC(=O)[C@@H](O)[C@H](O)c1cccc(N2CCc3c(cccc3-c3ccc(C(F)(F)F)cc3)C2)n1", "note": "[Compound 26, (2S,3R)-2,3-dihydroxy-3-(6-(5-(4-(trifluoromethyl)phenyl)-3,4-dihydroisoquinolin-2(1H)-yl)pyridin-2-yl)propanamide]", "values": [
      {"measurement": "IC50", "setting": "[1]", "value": "0.251 ± 0.017", "unit": "µM"},
      {"measurement": "Ki", "setting": "[2]", "value": "0.051 ± 0.014", "unit": "µM"}
    ]},
    {"smiles": "C[C@H](Nc1cc(C(N)=O)nc(N2CCc3c(cccc3-c3cccc(C(F)(F)F)c3)C2)n1)C(N)=O", "note": "[Compound 27, (S)-6-((1-amino-1-oxopropan-2-yl)amino)-2-(5-(3-(trifluoromethyl)phenyl)-3,4-dihydroisoquinolin-2(1H)-yl)pyrimidine-4-carboxamide]", "values": [
      {"measurement": "IC50", "setting": "[1]", "value": "1.52 ± 0.122", "unit": "µM"},
      {"measurement": "Ki", "setting": "[2]", "value": "0.24 ± 0.041", "unit": "µM"}
    ]},
    {"smiles": "C[C@H](Nc1cc(C(N)=O)nc(N2CCc3c(cccc3C3=CCCCC3)C2)n1)C(N)=O", "note": "[Compound 28, (S)-6-((1-amino-1-oxopropan-2-yl)amino)-2-(5-(cyclohex-1-en-1-yl)-3,4-dihydroisoquinolin-2(1H)-yl)pyrimidine-4-carboxamide]", "values": [
      {"measurement": "IC50", "setting": "[1]", "value": "2.84 ± 0.112", "unit": "µM"}
    ]},
    {"smiles": "O=S(=O)(Nc1ncns1)c1cccc(N2CCc3c(cccc3-c3ccc(C(F)(F)F)cc3)C2)n1", "note": "[Compound 29, N-(1,2,4-thiadiazol-5-yl)-6-(5-(4-(trifluoromethyl)phenyl)-3,4-dihydroisoquinolin-2(1H)-yl)pyridine-2-sulfonamide]", "values": [
      {"measurement": "IC50", "setting": "[1]", "value": "0.291 ± 0.019", "unit": "µM"},
      {"measurement": "Ki", "setting": "[2]", "value": "0.535 ± 0.145", "unit": "µM"}
    ]},
    {"smiles": "C[C@H](Nc1cc(C(N)=O)nc(N2CCc3c(cccc3C3CCCCC3)C2)n1)C(N)=O", "note": "[Compound 31, (S)-6-((1-amino-1-oxopropan-2-yl)amino)-2-(5-cyclohexyl-3,4-dihydroisoquinolin-2(1H)-yl)pyrimidine-4-carboxamide]", "values": [
      {"measurement": "IC50", "setting": "[1]", "value": "2.2 ± 0.898", "unit": "µM"}
    ]},
    {"smiles": "NC(=O)c1cc(N2CCc3c(cccc3-c3ccc(C(F)(F)F)cc3)C2)cc([C@H](O)CO)n1", "note": "[Compound 35, (S)-6-(1,2-dihydroxyethyl)-4-(5-(4-(trifluoromethyl)phenyl)-3,4-dihydroisoquinolin-2(1H)-yl)picolinamide]", "values": [
      {"measurement": "IC50", "setting": "[1]", "value": "0.502 ± 0.031", "unit": "µM"},
      {"measurement": "Ki", "setting": "[2]", "value": "0.232 ± 0.065", "unit": "µM"}
    ]},
    {"smiles": "NC(=O)c1cc(N2CCc3c(cccc3-c3ccc(C(F)(F)F)cc3)C2)cc([C@@H](O)CO)n1", "note": "[Compound 36, (R)-6-(1,2-dihydroxyethyl)-4-(5-(4-(trifluoromethyl)phenyl)-3,4-dihydro-isoquinolin-2(1H)-yl)picolinamide]", "values": [
      {"measurement": "IC50", "setting": "[1]", "value": "1.54 ± 0.229", "unit": "µM"},
      {"measurement": "Ki", "setting": "[2]", "value": "0.257 ± 0.046", "unit": "µM"}
    ]}
  ]
}
